≈ marks a conversion by molar mass, not a printed value. Where “and” joins values, the source holds several entries; their conditions need not be identical. Equal values may be shown once. Read-outs that look alike come from different tables or passages of the source.
What was measured:
[1] = system: 3 sensitive and 7 MDR A. baumannii clinical isolates; test: MIC, Hungarian clinical isolates and controls (384-well); type: cell-based
P. aeruginosa ATCC 27853 = test: IHMA QC MIC; type: cell-based
E. coli ATCC 25922 = test: IHMA QC MIC; type: cell-based
[2] = system: Enterococcus faecalis ATCC 29212; test: MIC broth microdilution (CLSI); type: cell-based, E. faecalis; conditions: Enterococcus faecalis, ATCC29212
physchem = type: physicochemical
Method: For the PBS, 2.38 g of disodium hydrogen phosphate dodecahydrate, 0.19 g of potassium dihydrogen phosphate, and 8.0 g of sodium chloride were added to distilled water (900 mL), and the solution was mixed overnight. […] Samples were prepared by weighing the exact mass of solid compounds (about 1 mg), and then, the appropriate volume of PBS was added to reach the final concentration of ∼1 mg/mL. […] The supernatant was diluted 3× with a 1:1 mixture of 0.1% TFA in water and acetonitrile and analyzed by HPLC. For the 7-point calibration curves, concentrated stock solutions of the compounds were prepared at concentrations of 10 and 0.5 mM in DMSO, which were diluted with a 1:1 mixture of 0.1% TFA in water and acetonitrile to the desired final concentrations and analyzed by HPLC. Results are given in μM as an average value of two independent experiments. For details on calibration curves, concentrations, analytical method, and HPLC method, see the Supporting Information.
Thermodynamic solubility assay
To determine thermodynamic solubility of compounds in PBS, calibration curves for the assayed compounds were prepared using seven concentrations. First, DMSO stock solutions of compounds at 10 mM and 0.5 mM concentration were prepared and then diluted (0.1% TFA in […]
Quality control (QC) samples were diluted from stock solutions with a 1:1 mixture of 0.1% TFA in water and acetonitrile to final concentrations of 60 µM, 20 µM, and 2 µM (6 µM, 2 µM, and 0.2 µM for 7f or 0.6 µM, 0.2 µM, and 0.02 µM for 7g).
Analytical reversed-phase UHPLC analyses were performed on Thermo Scientific Dionex UltiMate 3000 modular system (Thermo Fisher Scientific Inc., MA, USA). Waters Acquity UPLC® HSS C18 SB column (2.1 × 50 mm, 1.8 μm; Waters, Milford, MA, USA) was used at T […]
Mobile phase consisted of 0.1% trifluoroacetic acid in ultrapure water (solvent A) and acetonitrile […]
The obtained data was processed in Chromeleon CDS software (Thermo Fisher Scientific Inc., […]
Analytical method was tested for accuracy, precision and linear rang. Accuracy was […]
(or 2 or 0.2) µM and 60 (or 6 or 0.6) µM) to their true values and expressed in (%). Values were […]
Method repeatability was determined by calculating the RSD from the separately prepared and analysed quality control samples (n = 3). […] Linearity of the […]
method (1 (or 0.1 or 0.01) µM to 100 (or 10 or 1) µM) was evaluated from the 7-point calibration […]
Solubility was determined in two independent experiments and results were calculated in […]

[3] = Pseudomonas aeruginosa, ATCC27853, QC strain P. aeruginosa ATCC 27853, test date 2021-11-11
[4] = Pseudomonas aeruginosa, ATCC27853, QC strain P. aeruginosa ATCC 27853, test date 2021-11-26
[5] = Escherichia coli, ATCC25922, read-out: MIC (QC, repeated tests)
[6] = QC strain E. coli ATCC 25922, test date 2021-11-26
[7] = pH 7.4, thermodynamic solubility (pH = 7.4)

Row | SMILES | Cumulative % at MIC ([1]; n=10, MIC 0.0625 µg/mL) | Cumulative % at MIC [1] | MIC (P. aeruginosa ATCC 27853; [3]) | MIC (P. aeruginosa ATCC 27853; [4]) | MIC (E. coli ATCC 25922; Escherichia coli, ATCC25922) | MIC (E. coli ATCC 25922; [5]) | MIC (E. coli ATCC 25922; [6]) | also measured
1 | COc1c(N2C[C@@H]3CCCN[C@@H]3C2)c(F)cc2c(=O)c(C(=O)O)cn(C3CC3)c12 [Moxifloxacin, moxifloxacin] | 20% |  |  |  |  |  |  | Cumulative % at MIC ([1]; n=10, MIC 0.5 µg/mL): 30%; Cumulative % at MIC ([1]; n=10, MIC 32 µg/mL): 70%; Cumulative % at MIC ([1]; n=10, MIC 64 µg/mL): 100%; MIC (P. aeruginosa ATCC 27853; Pseudomonas aeruginosa, ATCC27853; read-out: MIC (QC, repeated tests)): 2 µg/mL (≈ 4.98 µM); MIC (E. coli ATCC 25922; Escherichia coli, ATCC25922; read-out: MIC (QC, repeated tests)): ≤ 0.5 µg/mL
2 | Cc1[nH]c(C(=O)Nc2nc3c(N4CCOCC4)cc(C(=O)O)cc3s2)c(Cl)c1Cl [7a, 2-(3,4-Dichloro-5-methyl-1H-pyrrole-2-carboxamido)-4-morpholinobenzo[d]thiazole-6-carboxylic Acid] |  | 80% and 100% | 64 µg/mL (≈ 141 µM) | 16 µg/mL (≈ 35.1 µM) | 8 µg/mL (≈ 17.6 µM) | 8 µg/mL (≈ 17.6 µM) | 8 µg/mL (≈ 17.6 µM) | MIC [2]: < 0.0312 µg/mL; solubility thermodynamic (physchem; pH 7.4, PBS pH 7.4, read-out: thermodynamic solubility, Experiment 1): 100 µM (≈ 45.5 µg/mL); solubility thermodynamic (physchem; pH 7.4, PBS pH 7.4, read-out: thermodynamic solubility, Experiment 2): 96.6 µM (≈ 44 µg/mL); solubility thermodynamic (physchem; [7]): 98.3 µM (≈ 44.8 µg/mL); solubility thermodynamic at 48 h (physchem; [7]): 98 µM (≈ 44.6 µg/mL)
3 | Cc1[nH]c(C(=O)Nc2nc3c(N4[C@@H]5CC[C@H]4COC5)cc(C(=O)O)cc3s2)c(Cl)c1Cl [7h, 4-((1R,5S)-3-Oxa-8-azabicyclo[3.2.1]octan-8-yl)-2-(3,4-dichloro-5-methyl-1H-pyrrole-2-carboxamido)benzo[d]thiazole-6-carboxylic Acid] |  | 100% | 16 µg/mL (≈ 33.2 µM) | 8 µg/mL (≈ 16.6 µM) |  |  | 4 µg/mL (≈ 8.31 µM) | MIC ([2]; read-out: MIC): < 0.0312 µg/mL; MIC (QC, repeated tests) (P. aeruginosa ATCC 27853): 4 µg/mL (≈ 8.31 µM); MIC (P. aeruginosa ATCC 27853; Pseudomonas aeruginosa, ATCC27853, read-out: MIC (QC, repeated tests)): 8 µg/mL (≈ 16.6 µM); solubility thermodynamic at 24 h (physchem; [7]): 3.8 µM (≈ 1.83 µg/mL); solubility thermodynamic at 24 h (physchem; pH 7.4, thermodynamic solubility, Experiment 1): 3.83 µM (≈ 1.84 µg/mL); solubility thermodynamic at 24 h (physchem; pH 7.4, thermodynamic solubility, Experiment 2): 3.8 µM (≈ 1.83 µg/mL)
4 | C[C@H]1COc2c(N3CCN(C)CC3)c(F)cc3c(=O)c(C(=O)O)cn1c23.C[C@H]1COc2c(N3CCN(C)CC3)c(F)cc3c(=O)c(C(=O)O)cn1c23.O [Levofloxacin, levofloxacin] | 30% |  | 2 µg/mL | 1 µg/mL | 0.015 µg/mL | ≤ 0.25 µg/mL | 0.015 µg/mL | MIC (P. aeruginosa ATCC 27853; QC strain P. aeruginosa ATCC 27853, test date 2021-11-11): 1 µg/mL

— PMC10041525, “New Dual Inhibitors of Bacterial Topoisomerases with Broad-Spectrum Antibacterial Activity and In Vivo Efficacy against Vancomycin-Intermediate Staphylococcus aureus” (Journal of Medicinal Chemistry, 2023)
